Measurements as given in patent EP0457908A1, “HYDROCHLORIDE 2,3,3a,4,5,6-HEXAHYDRO-8-CYCLOHEXYL-1H-PYRAZINO (3,2,1-j,k)CARBAZOL, METHOD OF OBTAINING IT AND A PHARMACEUTICAL PREPARATION OF ANTIDEPRESSIVE ACTION BASED ON IT” (priority 1989, dated 1991).
Read-outs that look alike come from different tables or passages of the source.

Experiments:
[1] = tested on: rats; test: Acute toxicity, rats; assay type: in vivo
Excerpt: (§1) The acute and chronical toxicity of the compound according to the present invention was studied on mice, rats and rabbits.

[2] = tested on: rabbits; test: Bioelectrical activity of the brain (electroencephalogram), rabbits; assay type: in vivo
Excerpt: The study of the effect on the bioelectrical activity of the brain was effected in acute experiments using 8 consious cats immobilized with diplacin with a mass of 2.5-3.4 kg under conditions of a controlled breathing and 25 rabbits with a mass of 2.6-3.1 kg with chronically implanted electrodes. Recorded on an electroencephalograph was an electroencephalogram of the sensomotor, parietal and visual regions of the cerebral cortex in cats, plus that of the reticular formation of the midbrain, dorsal hippocamp and amygdala in rabbits.

[3] = tested on: normotensive rats of the Vistar line; test: Effect on arterial pressure and heart beat rate; assay type: in vivo
Method: The compound according to the present invention was also tested for its effect on the cardiovascular system.

[4] = tested on: male rats; test: Conditional reflex of passive avoidance after amnesia (antiamnestic effect); assay type: in vivo; details: 1 mg/kg oral
Method: Also studied was the effect of the compound according to the present invention on reproduction of the memory traces upon amnesia.
The experiments were carried out using male rats of a mass of 180-220 g.
The antiamnestic effect of the compound according to the present invention was assessed by the method of a conditional reflex of a passive avoidance with a subsequent use, as amnesic factors, of an electric shock (50 mA, 0.3 ms) through ear electrodes or scopolamine (1 mg/kg hypodermally).
The learning of the conditional reflex of a passive avoidance was effected by the "Step-down" method (Izquerdo, 1981) in an experimental unit consisting of a 30x30x40 cm chamber with an electrified floor having in its centre a plastic platform of 10x15x0.5 cm size. A rat was placed onto the platform and a latent period of its escape therefrom was recorded (in seconds). When escaping the platform onto the floor, the rat was subjected to an electric irritation on paws (0.5 mA, 10 seconds) that made it to climb the platform. The learning course took 6 sessions, each of 3 minutes duration. The conditional response was regarded as acquired if an animal remained on the platform for 1 minute.
The amnesic effect was produced immediately after learning course and 30 minutes thereafter the compound according to the present invention was administered in the doses of 1 and 3 mg/kg or (for comparison) pyracetam was administered in the doses of 100, 300, 600 and 1,000 mg/kg. The reproduction of the memory trace was assessed 24 hours after the electric shock and 2.5 hours after administration of scopolamine.

[5] = tested on: mice; test: Acute toxicity, mice; assay type: in vivo
Excerpt: as §1

[6] = tested on: normotensive female rats of the Vistar line; test: Influence on the pressor effect of tyramine
Method: The experiments were conducted on conscious normotensive female rats of the Vistar line with a mass of 210-250 g placed under conditions of a free behaviour.

[7] = tested on: monoaminoxidase; test: Monoaminoxidase activity in brain and liver homogenates after oral dosing; assay type: in vivo, male white rats
Method: (§2) The effect of the compound according to the present invention on the activity of monoaminoxidase was studied in special biochemical investigations.
(§3) The experiments were conducted in vivo on male white rats with a mass of 180-200 g. The compound in the doses of 5, 10, 25 and 50 mg/kg was administered orally. An equal volume of a […] of NaCl was administered to control animals. 1.5 hour after administration of the drug the animals were killed. […] The activity of monoaminoxidase was determined in 50% homogenates of the liver and brains of rate prepared on the basis of a 0.1 M phosphate buffer (pH = 7.4) containing 2% of a detergent - Trytol X-100. The substrates were used in concentrations of serotonin 10 µmol, tyramine 6 µmol per sample. The activity of monoaminoxidase was evaluated by liberation of ammonia during incubation of the samples for 50 minutes at the temperature of 37 °C in an oxygen atmosphere.
(§4) Protein in homogenates of the rat liver and brain was determined following the Peterson procedure (1977).

[8] = molecular target: T1, monoaminoxidase (Rattus norvegicus, UniProt P21396); test: as above; assay type: in vivo, male white rats
T1 sequence (P21396 1-526): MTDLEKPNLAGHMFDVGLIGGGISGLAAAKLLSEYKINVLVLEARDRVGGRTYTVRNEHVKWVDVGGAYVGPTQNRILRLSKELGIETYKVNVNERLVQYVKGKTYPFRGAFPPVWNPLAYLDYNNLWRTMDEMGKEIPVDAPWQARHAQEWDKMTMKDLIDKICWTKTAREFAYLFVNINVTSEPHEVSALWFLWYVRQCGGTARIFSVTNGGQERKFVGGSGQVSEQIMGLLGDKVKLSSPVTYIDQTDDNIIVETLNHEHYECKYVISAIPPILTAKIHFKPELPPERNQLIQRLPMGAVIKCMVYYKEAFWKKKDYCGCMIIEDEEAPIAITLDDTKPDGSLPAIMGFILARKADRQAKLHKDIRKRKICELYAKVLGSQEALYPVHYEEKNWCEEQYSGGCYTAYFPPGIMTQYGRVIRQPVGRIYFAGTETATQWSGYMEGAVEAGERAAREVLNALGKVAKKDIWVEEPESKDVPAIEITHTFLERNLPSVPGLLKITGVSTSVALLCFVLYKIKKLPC
Method: as §2, §3, §4

[9] = tested on: white rats; test: Stereotypy induced by d,l-amphetamine; assay type: in vivo; details: distilled water = 100
Method: To evaluate the influence on stereotypy, the experiments were carried out on white rats of both sexes with a mass of 100-150 g. […] Stereotypy was assessed in points of from to 3 (after Janssen et al., 1967).

[10] = 5 mg/kg oral, 1.5 hour after administration
[11] = 10 mg/kg oral, 1.5 hour after administration
[12] = 25 mg/kg oral, 1.5 hour after administration (Table 5)
[13] = 25 mg/kg orally, time 1.5 hours (Table 6)
[14] = 25 mg/kg orally, time 6.0 hours
[15] = 25 mg/kg orally, time 48.0 hours
[16] = 50 mg/kg oral, 1.5 hour after administration

Which LD₅₀ [1] does the source give for “2,3,3a,4,5,6-hexahydro-8-cyclohexyl-1H-pyrazino-(3,2,1-j,k)-carbazole hydrochloride [Compound of the present invention]” here?
Its LD₅₀ is 2.5 g/kg.

What about the LD₅₀ ([1]; oral administration) of the same substance?
Its LD₅₀ is 2,500 mg/kg.

What about the “amplitude of sinusoidal regular waves (teta-activity)” value ([2]; 2 mg/kg, rabbits, hippocampus) of the same substance?
Its value is 150-200 µV.

What about the “frequency of sinusoidal regular waves (teta-activity)” value ([2]; 2 mg/kg, rabbits, hippocampus) of the same substance?
Its value is 4-6 oscillations per second.

What about the “frequency of regular low-amplitude rhythms” value ([2]; 2 mg/kg, rabbits, visual, parietal regions and reticular formation of the midbrain) of the same substance?
Its value is 5-7 oscillations per second.

And the “time after administration at which the variations in the electroencephalogram appeared” value ([2]; 2 mg/kg, species not given)?
Its value is 75-90 minutes.

What about the “time after administration at which the effect of activation was recorded” value ([2]; 5 mg/kg, species not given) of the same substance?
The value was 45 to 60 min.

And the heart beat rate ([3]; 10 mg/kg oral daily for 5 days)?
The heart beat rate was “did not change the heart beat rate”.

What about the “effect on the arterial pressure and heart beat rate” value ([3]; 1-100 mg/kg orally, free behaviour) of the same substance?
The value was “no essential effect”.

And the “Number of rats, %, remained on the platform for 1 minute, 2.5 hours after administration of scopolamine (1 mg/kg hypodermally)” value ([4]; amnesia control 10±3.3, distilled water 85±2.0)?
The value was 22±6.0%.

What about the “Number of rats, %, remained on the platform for 1 minute, 1 day after electric shock” value ([4]; electroshock alone 14.2±3.0, distilled water 85±2.0) of the same substance?
The value was 25±3.2%.

What about the LD₅₀ ([5]; oral administration, mice) of the same substance?
Its LD₅₀ is 1,300 mg/kg.

And the LD₅₀ ([5]; white mice)?
Its LD₅₀ is 1.3 g/kg.

What about the “enhanced effect of tyramine” value ([6]; 5 mg/kg orally for 5 days) of the same substance?
The value was “no enhanced effect of tyramine was observed”.

And the “time after administration at which the enhanced effect of tyramine was noticed” value ([6]; 25 mg/kg orally)?
Its value is 6 to 18 h.

What about the “enhanced the pressor effect of tyramine” value ([6]; 25 mg/kg orally, tyramine 20 mg/kg orally) of the same substance?
Its value is 2 times.

And the “Inhibition of deamination, % (M±m), Brain, Tyramine” value [7, 10]?
Its value is 17±4.2%.

And the “Inhibition of deamination, % (M±m), Liver, Tyramine” value [7, 10]?
The value was 0%.

And the “Inhibition of deamination, % (M±m), Brain, Tyramine” value [7, 11]?
Its value is 16.6±3.4%.

What about the “Inhibition of deamination, % (M±m), Liver, Tyramine” value [7, 11] of the same substance?
Its value is 0%.

And the “Inhibition of deamination, % (M±m), Brain, Tyramine” value [7, 12]?
Its value is 40±3.0%.

And the “Inhibition of deamination, % (M±m), Liver, Tyramine” value [7, 12]?
The value was 0%.

And the “time after which the activity of monoaminoxidase was fully restored” value ([7]; 25 mg/kg orally)?
The value was 48 h.

What about the “Inhibition of deamination, % (M±m), Brain, Tyramine” value [7, 13] of the same substance?
The value was 40.0±3.0%.

And the “Inhibition of deamination, % (M±m), Liver, Tyramine” value [7, 13]?
Its value is 0%.

What about the “Inhibition of deamination, % (M±m), Brain, Tyramine” value [7, 14] of the same substance?
Its value is 36.0±9.3%.

And the “Inhibition of deamination, % (M±m), Liver, Tyramine” value [7, 14]?
The value was 0%.

What about the “Inhibition of deamination, % (M±m), Brain, Tyramine” value [7, 15] of the same substance?
The value was 2.5±1.1%.

And the “Inhibition of deamination, % (M±m), Liver, Tyramine” value [7, 15]?
Its value is 0%.

What about the “Inhibition of deamination, % (M±m), Brain, Tyramine” value [7, 16] of the same substance?
The value was 43±6.6%.

What about the “Inhibition of deamination, % (M±m), Liver, Tyramine” value [7, 16] of the same substance?
The value was 0%.

What about the “character of the inhibiting effect on the activity of monoaminoxidase” value ([7]; rat, in vivo) of the same substance?
The value was “reversible selective inhibitor of monoaminoxidase of the A type”.

What about the “Inhibition of deamination, % (M±m), Liver, Serotonin” value [8, 10] of the same substance?
Its value is 36±9.0%.

What about the “Inhibition of deamination, % (M±m), Brain, Serotonin” value ([8]; 5 mg/kg oral, 1.5 hour after administration, listed as Compound of the invention, hydrochloride) of the same substance?
Its value is 60±6.3%.

And the “Inhibition of deamination, % (M±m), Brain, Serotonin” value ([8]; 5 mg/kg oral, 1.5 hour after administration, listed as compound according to the present invention, hydrochloride)?
The value was 60%.

What about the “Inhibition of deamination, % (M±m), Brain, Serotonin” value [8, 11] of the same substance?
Its value is 61±7.6%.

And the “Inhibition of deamination, % (M±m), Liver, Serotonin” value [8, 11]?
Its value is 27±6.7%.

And the “Inhibition of deamination, % (M±m), Brain, Serotonin” value [8, 12]?
Its value is 71±7.6%.

What about the “Inhibition of deamination, % (M±m), Liver, Serotonin” value [8, 12] of the same substance?
The value was 64±6.4%.

What about the “Inhibition of deamination, % (M±m), Brain, Serotonin” value [8, 13] of the same substance?
The value was 71.0±2.0%.

What about the “Inhibition of deamination, % (M±m), Liver, Serotonin” value [8, 13] of the same substance?
The value was 64.0±6.4%.

What about the “Inhibition of deamination, % (M±m), Brain, Serotonin” value [8, 14] of the same substance?
The value was 66.5±3.0%.

What about the “Inhibition of deamination, % (M±m), Liver, Serotonin” value [8, 14] of the same substance?
Its value is 53.0±3.0%.

And the “Inhibition of deamination, % (M±m), Brain, Serotonin” value [8, 15]?
Its value is 14.0±4.8%.

What about the “Inhibition of deamination, % (M±m), Liver, Serotonin” value [8, 15] of the same substance?
Its value is 0%.

And the “Inhibition of deamination, % (M±m), Brain, Serotonin” value [8, 16]?
The value was 93±3.0%.

And the “Inhibition of deamination, % (M±m), Liver, Serotonin” value [8, 16]?
The value was 89±2.7%.

What about the “Stereotypy (tolal, for 4 measurements for 4 hours after hypodermal administration of d,l-amphetamine), %” value (shortened to “Stereotypy … %”) ([9]; oral dose 2.5 mg/kg) of the same substance?
The value was 145%.

And the “Stereotypy … %” value ([9]; oral dose 5.0 mg/kg)?
Its value is 170%.

What about the “Stereotypy … %” value ([9]; oral dose 10.0 mg/kg) of the same substance?
Its value is 225%.
